Measured values as given in the NIST ThermoML archive (doi:10.1021/je401036f).

Experiment: xn = mol fraction of the nth substance listed
Details: 101 kPa, Liquid; for viscosity: Concentric cylinders viscometry; for mass density: Vibrating tube method

CC(O)CN (stereo not given) [1-amino-2-propanol] + CCCCO
Details | mass density, 288.15 K [kg/m3] | mass density, 293.15 K [kg/m3] | mass density, 298.15 K [kg/m3] | mass density, 303.15 K [kg/m3] | mass density, 308.15 K [kg/m3] | viscosity, 288.15 K [mPa·s] | viscosity, 293.15 K [mPa·s] | viscosity, 298.15 K [mPa·s] | viscosity, 303.15 K [mPa·s] | viscosity, 308.15 K [mPa·s]
x1 = 0.1 | 827.167 | 823.338 | 819.488 | 815.611 | 811.706 | 4.019 | 3.444 | 2.989 | 2.615 | 2.298
x1 = 0.2005 | 841.339 | 837.455 | 833.571 | 829.669 | 825.735 | 4.952 | 4.218 | 3.62 | 3.129 | 2.726
x1 = 0.3 | 855.625 | 851.736 | 847.825 | 843.892 | 839.932 | 6.238 | 5.202 | 4.398 | 3.756 | 3.23
x1 = 0.3999 | 870.246 | 866.053 | 862.123 | 858.167 | 854.42 | 8.046 | 6.617 | 5.507 | 4.639 | 3.944
x1 = 0.5 | 885.14 | 881.2 | 877.169 | 873.195 | 869.288 | 10.48 | 8.455 | 6.858 | 5.721 | 4.788
x1 = 0.6001 | 900.478 | 896.524 | 892.563 | 888.575 | 884.561 | 13.85 | 10.88 | 8.782 | 7.156 | 5.904
x1 = 0.7 | 916.099 | 912.152 | 908.181 | 904.186 | 900.162 | 18.2 | 14.08 | 11.03 | 8.892 | 7.231
x1 = 0.8 | 932.069 | 928.119 | 924.144 | 920.144 | 916.116 | 24.34 | 18.34 | 14.18 | 11.17 | 8.949
x1 = 0.8997 | 948.249 | 944.296 | 940.31 | 936.303 | 932.266 | 32.26 | 23.93 | 18.16 | 14.06 | 11.1
x1 = 1 | 964.544 | 960.598 | 956.618 | 952.612 | 948.577 | 43.7 | 31.68 | 23.54 | 17.9 | 13.88
